{"source": "ChEMBL document CHEMBL3046582", "about": "“Antifeedant activity of sesquiterpenes from celastraceae” (1997)", "type_in_all_cases": "functional", "key": {"Spodoptera littoralis [1]": {"test_system": "Spodoptera littoralis", "assay": "Antifeedant activity against newly ecdysed fifth-instar larval stage of Spodoptera littoralis in compound-pretreated lettuce leaf disks assessed as consumed area of leaf disks at 0.1 ug/cm'2 measured at 30 min intervals for 4-5 hr post-drug exposure by choice test"}, "Spodoptera littoralis [2]": {"test_system": "Spodoptera littoralis", "assay": "Antifeedant activity against newly ecdysed fifth-instar larval stage of Spodoptera littoralis in compound-pretreated lettuce leaf disks assessed as consumed area of leaf disks at 1 ug/cm'2 measured at 30 min intervals for 4-5 hr post-drug exposure by choice test"}, "Spodoptera littoralis [3]": {"test_system": "Spodoptera littoralis", "assay": "Antifeedant activity against newly ecdysed fifth-instar larval stage of Spodoptera littoralis in compound-pretreated lettuce leaf disks assessed as consumed area of leaf disks at 10 ug/cm'2 measured at 30 min intervals for 4-5 hr post-drug exposure by choice test"}, "Spodoptera littoralis [4]": {"test_system": "Spodoptera littoralis", "assay": "Antifeedant activity against newly ecdysed fifth-instar larval stage of Spodoptera littoralis in compound-pretreated lettuce leaf disks assessed as consumed area of leaf disks at 0.01 ug/cm'2 measured at 30 min intervals for 4-5 hr post-drug exposure by choice test"}}, "data": [{"smiles": "COCCCC[C@@H]1[C@@H]2[C@@H](OC(C)=O)[C@@]3(OC2(C)C)[C@@](OC(C)=O)([C@@H](OC(C)=O)CC[C@]3(C)O)[C@@H]1OC(=O)c1ccccc1", "values": [{"measurement": "FR50", "setting": "Spodoptera littoralis [1]", "value": 0.23}, {"measurement": "FR50", "setting": "Spodoptera littoralis [2]", "value": 0}, {"measurement": "FR50", "setting": "Spodoptera littoralis [3]", "value": 0}, {"measurement": "FR50", "setting": "Spodoptera littoralis [4]", "value": 0.69}]}]}
